The source made the active and inactive calls. The rule behind the calls is not given here.
Test system: CCRIS mutagenicity, Ames/micronucleus/aberration tests
Assay: CCRIS mutagenicity studies
[1] = Test System: AMES SALMONELLA TYPHIMURIUM, Strain/Indicator: TA100, Metabolic Activation: NONE, Method: PREINCUBATION

Which results are given for `O=c1[nH]c(=O)n(Cl)c(=O)n1Cl`?
mutagenic call (Test System: AMES SALMONELLA TYPHIMURIUM, Strain/Indicator: TA98, Metabolic Activation: HAMSTER, LIVER, S-9, AROCLOR 1254 (10%), Method: PREINCUBATION): inactive; negative; mutagenic call (Test System: AMES SALMONELLA TYPHIMURIUM, Strain/Indicator: TA98, Metabolic Activation: NONE, Method: PREINCUBATION): inactive; negative; mutagenic call (Test System: AMES SALMONELLA TYPHIMURIUM, Strain/Indicator: TA98, Metabolic Activation: RAT, LIVER, S-9, AROCLOR 1254 (10%), Method: PREINCUBATION): inactive; negative; mutagenic call (Test System: AMES SALMONELLA TYPHIMURIUM, Strain/Indicator: TA100, Metabolic Activation: HAMSTER, LIVER, S-9, AROCLOR 1254 (10%), Method: PREINCUBATION): inactive; negative; mutagenic call [1]: inactive; negative; mutagenic call (Test System: AMES SALMONELLA TYPHIMURIUM, Strain/Indicator: TA100, Metabolic Activation: RAT, LIVER, S-9, AROCLOR 1254 (10%), Method: PREINCUBATION): inactive; negative; mutagenic call (Test System: AMES SALMONELLA TYPHIMURIUM, Strain/Indicator: TA1535, Metabolic Activation: HAMSTER, LIVER, S-9, AROCLOR 1254 (10%), Method: PREINCUBATION): inactive; negative; mutagenic call (Test System: AMES SALMONELLA TYPHIMURIUM, Strain/Indicator: TA1535, Metabolic Activation: NONE, Method: PREINCUBATION): inactive; negative; mutagenic call (Test System: AMES SALMONELLA TYPHIMURIUM, Strain/Indicator: TA1535, Metabolic Activation: RAT, LIVER, S-9, AROCLOR 1254 (10%), Method: PREINCUBATION): inactive; negative; mutagenic call (Test System: AMES SALMONELLA TYPHIMURIUM, Strain/Indicator: TA1537, Metabolic Activation: HAMSTER, LIVER, S-9, AROCLOR 1254 (10%), Method: PREINCUBATION): inactive; negative; mutagenic call (Test System: AMES SALMONELLA TYPHIMURIUM, Strain/Indicator: TA1537, Metabolic Activation: NONE, Method: PREINCUBATION): inactive; negative; mutagenic call (Test System: AMES SALMONELLA TYPHIMURIUM, Strain/Indicator: TA1537, Metabolic Activation: RAT, LIVER, S-9, AROCLOR 1254 (10%), Method: PREINCUBATION): inactive; negative

Which results are given for `CCCCCCCCCCCCN=C(N)N`?
mutagenic call (End Point: In vitro chromosomal aberrations, Test System: Cultured human (male) lymphocytes, Metabolic Activation: None): inactive; negative; mutagenic call (End Point: In vitro chromosomal aberrations, Test System: Cultured human (male) lymphocytes, Metabolic Activation: S-9): inactive; negative; mutagenic call (End Point: In vivo micronucleus, Test System: Blood erythrocytes, Species: Mouse, Strain/Sex: ICR (male and female), 5-20/sex/dose, Route: Oral): inactive; negative; mutagenic call (End Point: In vivo micrunucleus, Test System: Bone marrow polychromatic erythrocytes, Species: Mouse, Strain/Sex: Males and females, Route: Oral): inactive; negative; mutagenic call (Test System: Ames Salmonella typhimurium, Strain/Indicator: TA98, Metabolic Activation: None, Method: Plate incorporation): inactive; negative; mutagenic call (Test System: Ames Salmonella typhimurium, Strain/Indicator: TA98, Metabolic Activation: Rat, Liver, S-9, Aroclor, Method: Plate incorporation): inactive; negative; mutagenic call (Test System: Ames Salmonella typhimurium, Strain/Indicator: TA100, Metabolic Activation: None, Method: Plate incorporation): inactive; negative; mutagenic call (Test System: Ames Salmonella typhimurium, Strain/Indicator: TA100, Metabolic Activation: Rat, Liver, S-9, Aroclor, Method: Plate incorporation): inactive; negative; mutagenic call (Test System: Ames Salmonella typhimurium, Strain/Indicator: TA1535, Metabolic Activation: None, Method: Plate incorporation): inactive; negative; mutagenic call (Test System: Ames Salmonella typhimurium, Strain/Indicator: TA1535, Metabolic Activation: Rat, Liver, S-9, Aroclor, Method: Plate incorporation): inactive; negative; mutagenic call (Test System: Ames Salmonella typhimurium, Strain/Indicator: TA1537, Metabolic Activation: None, Method: Plate incorporation): inactive; negative; mutagenic call (Test System: Ames Salmonella typhimurium, Strain/Indicator: TA1537, Metabolic Activation: Rat, Liver, S-9, Aroclor, Method: Plate incorporation): inactive; negative; mutagenic call (Test System: Chinese hamster ovary (CHO) cells, Strain/Indicator: CHO/6-Thioguanine, Metabolic Activation: None): inactive; negative; mutagenic call (Test System: Chinese hamster ovary (CHO) cells, Strain/Indicator: CHO/6-Thioguanine, Metabolic Activation: S-9): inactive; negative; mutagenic call (Test System: E. coli, Strain/Indicator: WP2uvrA, Metabolic Activation: None, Method: Plate incorporation): inactive; negative; mutagenic call (Test System: E. coli, Strain/Indicator: WP2uvrA, Metabolic Activation: Rat, Liver, S-9, Method: Plate incorporation): inactive; negative

`N#C[Se]Cc1ccccc1` was tested. Which mutagenic call (Test System: AMES SALMONELLA TYPHIMURIUM, Strain/Indicator: TA97A, Metabolic Activation: NONE, Method: STANDARD PLATE) did it give?
The mutagenic call was “inactive; negative”.

And the mutagenic call (Test System: AMES SALMONELLA TYPHIMURIUM, Strain/Indicator: TA100, Metabolic Activation: NONE, Method: STANDARD PLATE)?
The mutagenic call was “active; positive”.

Which results are given for `COc1cc(OC)c2nc3occc3c(OC)c2c1`?
mutagenic call (Test System: AMES SALMONELLA TYPHIMURIUM, Strain/Indicator: TA98, Metabolic Activation: RAT, LIVER, S-9, PHENOBARBITAL, Method: STANDARD PLATE): active; positive; mutagenic call (Test System: AMES SALMONELLA TYPHIMURIUM, Strain/Indicator: TA100, Metabolic Activation: RAT, LIVER, S-9, PHENOBARBITAL, Method: STANDARD PLATE): active; positive

For `CC(=O)Nc1ccc(Cc2ccc(NC(C)=O)c(Cl)c2)cc1Cl`, which mutagenic call [1] is on record?
The mutagenic call was “inactive; negative”.

And the mutagenic call (Test System: AMES SALMONELLA TYPHIMURIUM, Strain/Indicator: TA100, Metabolic Activation: RAT, LIVER, S-9, AROCLOR 1254 (50 µL), Method: PREINCUBATION)?
The mutagenic call was “inactive; negative”.

And the mutagenic call (Test System: AMES SALMONELLA TYPHIMURIUM, Strain/Indicator: TA100, Metabolic Activation: RAT, LIVER, S-9, AROCLOR 1254 (100 OR 200 µL), Method: PREINCUBATION)?
The mutagenic call was “active; positive”.

How did the mutagenic call (Test System: AMES SALMONELLA TYPHIMURIUM, Strain/Indicator: TA100, Metabolic Activation: RAT, LIVER, S-9, AROCLOR 1254, Method: STANDARD PLATE) turn out when `CCCn1cc2c3c(cccc31)C1C[C@@H](C)CN(C#N)[C@@H]1C2` (some centres not stated) was run?
The mutagenic call was “active; positive”.

With `CC(C)CCCC(C)CCCC(C)CCCCC(C)CCCC(C)CCCC(C)C` (configuration not stated) as the compound, how does the mutagenic call (Test System: Ames Salmonella typhimurium, Strain/Indicator: TA98, Metabolic Activation: None, Method: Preincubation) read?
Its mutagenic call is “inactive; negative”.

What about the mutagenic call (Test System: Ames Salmonella typhimurium, Strain/Indicator: TA98, Metabolic Activation: Rat, Liver, S9, Phenobarbital and 5,6-benzoflavone, Method: Preincubation) of the same compound?
Its mutagenic call is “inactive; negative”.

And the mutagenic call (Test System: Ames Salmonella typhimurium, Strain/Indicator: TA100, Metabolic Activation: None, Method: Preincubation)?
The mutagenic call was “inactive; negative”.

What about the mutagenic call (Test System: Ames Salmonella typhimurium, Strain/Indicator: TA100, Metabolic Activation: Rat, Liver, S9, Phenobarbital and 5,6-benzoflavone, Method: Preincubation) of the same compound?
The mutagenic call was “inactive; negative”.

What about the mutagenic call (Test System: Ames Salmonella typhimurium, Strain/Indicator: TA1535, Metabolic Activation: None, Method: Preincubation) of the same compound?
The mutagenic call was “inactive; negative”.

And the mutagenic call (Test System: Ames Salmonella typhimurium, Strain/Indicator: TA1535, Metabolic Activation: Rat, Liver, S9, Phenobarbital and 5,6-benzoflavone, Method: Preincubation)?
The mutagenic call was “inactive; negative”.

What about the mutagenic call (Test System: Ames Salmonella typhimurium, Strain/Indicator: TA1537, Metabolic Activation: None, Method: Preincubation) of the same compound?
Its mutagenic call is “inactive; negative”.

What about the mutagenic call (Test System: Ames Salmonella typhimurium, Strain/Indicator: TA1537, Metabolic Activation: Rat, Liver, S9, Phenobarbital and 5,6-benzoflavone, Method: Preincubation) of the same compound?
The mutagenic call was “inactive; negative”.

And the mutagenic call (Test System: E. coli, Strain/Indicator: WP2uvrA/pKM101, Metabolic Activation: None, Method: Preincubation)?
The mutagenic call was “inactive; negative”.

And the mutagenic call (Test System: E. coli, Strain/Indicator: WP2uvrA/pKM101, Metabolic Activation: Rat, Liver, S9, Phenobarbital and 5,6-benzoflavone, Method: Preincubation)?
Its mutagenic call is “inactive; negative”.

`CC(=O)N(O)c1ccc(/C=C\c2ccccc2)cc1` was tested. Which mutagenic call (Test System: UDS HUMAN FIBROBLASTS, Strain/Indicator: THY INCORP (NON-S-PHASE), Metabolic Activation: NONE, Method: AUTORADIOGRAPHY) did it give?
The mutagenic call was “active; positive”.

Source: PubChem BioAssay AID1259407 (Chemical Carcinogenesis Research Information System (CCRIS), 2018)
